Test system: Lox-IMVI melanoma cell line
Assay: Lox-IMVI anti-proliferative assay (growth inhibition, Cell Titer-Glo)
Type: cell-based, human
Settings: Homo sapiens; Lox-IMVI melanoma cell line, anti-proliferative assay; read-out: Activity (IC50 activity level)
How it was run: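 Growth inhibition is assessed over 72 h in RPMI + 10% FBS at 0.2% DMSO, with ATP-based luminescence used as the viability measure. IC50 is fitted from normalized dose-response data.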

| IC50 [nM] | SMILES |
| --- | --- |
| > 1000 | NC(=O)[C@H]1CC[C@@H](n2c(Nc3c(Cl)cc(F)cc3Cl)nc3cnc(N[C@@H]4CCCN(c5ccccc5)C4)nc32)CC1 [Example 749, (1S,4s)-4-(8-(2,6-dichloro-4-fluorophenylamino)-2-((R)-1-phenylpiperidin-3-ylamino)-9H-purin-9-yl)cyclohexanecarboxamide] |
| > 1000 | N#Cc1cc(F)c(Nc2nc3cnc(N[C@@H]4CCCN(c5ccccc5)C4)nc3n2[C@H]2CC[C@@H](C(N)=O)CC2)c(Cl)c1 [Example 750, (1S,4s)-4-(8-(2-chloro-4-cyano-6-fluorophenylamino)-2-((R)-1-phenylpiperidin-3-ylamino)-9H-purin-9-yl)cyclohexanecarboxamide] |
| > 1000 | NC(=O)[C@H]1CC[C@@H](n2c(Nc3c(F)cc(F)cc3Cl)nc3cnc(N[C@@H]4CCCN(Cc5ccccc5)C4)nc32)CC1 [Example 751, (1S,4s)-4-(2-((R)-1-benzylpiperidin-3-ylamino)-8-(2-chloro-4,6-difluorophenylamino)-9H-purin-9-yl)cyclohexanecarboxamide] |
| > 1000 | NC(=O)[C@H]1CC[C@@H](n2c(Nc3c(Cl)cc(Cl)cc3Cl)nc3cnc(N[C@@H]4CCCN(Cc5ccccc5)C4)nc32)CC1 [Example 752, (1S,4s)-4-(2-((R)-1-benzylpiperidin-3-ylamino)-8-(2,4,6-trichlorophenylamino)-9H-purin-9-yl)cyclohexanecarboxamide] |
| > 1000 | N#Cc1cc(Cl)c(Nc2nc3cnc(N[C@@H]4CCCN(Cc5ccccc5)C4)nc3n2[C@H]2CC[C@@H](C(N)=O)CC2)c(Cl)c1 [Example 753, (1S,4s)-4-(2-((R)-1-benzylpiperidin-3-ylamino)-8-(2,6-dichloro-4-cyanophenylamino)-9H-purin-9-yl)cyclohexanecarboxamide] |
| > 1000 | NC(=O)[C@H]1CC[C@@H](n2c(Nc3c(Cl)cc(C(F)(F)F)cc3Cl)nc3cnc(N[C@@H]4CCCN(Cc5ccccc5)C4)nc32)CC1 [Example 754, (1S,4s)-4-(2-((R)-1-benzylpiperidin-3-ylamino)-8-(2,6-dichloro-4-(trifluoromethyl)phenylamino)-9H-purin-9-yl)cyclohexanecarboxamide] |
| > 1000 | N#Cc1cc(F)c(Nc2nc3cnc(N[C@@H]4CCCN(Cc5ccccc5)C4)nc3n2[C@H]2CC[C@@H](C(N)=O)CC2)c(F)c1 [Example 755, (1S,4s)-4-(2-((R)-1-benzylpiperidin-3-ylamino)-8-(4-cyano-2,6-difluorophenylamino)-9H-purin-9-yl)cyclohexanecarboxamide] |
| > 1000 | NC(=O)[C@H]1CC[C@@H](n2c(Nc3c(F)cc(F)cc3F)nc3cnc(N[C@@H]4CCCN(Cc5ccccc5)C4)nc32)CC1 [Example 756, (1S,4s)-4-(2-((R)-1-benzylpiperidin-3-ylamino)-8-(2,4,6-trifluorophenylamino)-9H-purin-9-yl)cyclohexanecarboxamide] |
| > 1000 | NC(=O)[C@H]1CC[C@@H](n2c(Nc3c(F)cc(Cl)cc3F)nc3cnc(N[C@@H]4CCCN(Cc5ccccc5)C4)nc32)CC1 [Example 757, (1S,4s)-4-(2-((R)-1-benzylpiperidin-3-ylamino)-8-(4-chloro-2,6-difluorophenylamino)-9H-purin-9-yl)cyclohexanecarboxamide] |
| > 1000 | NC(=O)[C@H]1CC[C@@H](n2c(Nc3c(F)cc(Cl)cc3Cl)nc3cnc(N[C@@H]4CCCN(Cc5ccccc5)C4)nc32)CC1 [Example 758, (1S,4s)-4-(2-((R)-1-benzylpiperidin-3-ylamino)-8-(2,4-dichloro-6-fluorophenylamino)-9H-purin-9-yl)cyclohexanecarboxamide] |
| > 1000 | NC(=O)[C@H]1CC[C@@H](n2c(Nc3c(Cl)cc(F)cc3Cl)nc3cnc(N[C@@H]4CCCN(Cc5ccccc5)C4)nc32)CC1 [Example 759, (1S,4s)-4-(2-((R)-1-benzylpiperidin-3-ylamino)-8-(2,6-dichloro-4-fluorophenylamino)-9H-purin-9-yl)cyclohexanecarboxamide] |
| < 250 | C[C@]1(C(N)=O)CC[C@@H](n2c(Nc3c(Cl)cc(C#N)cc3Cl)nc3cnc(N[C@@H]4CCOC[C@H]4F)nc32)CC1 [Example 760, (1S,4s)-4-(8-(2,6-dichloro-4-cyanophenylamino)-2-((3S,4R)-3-fluorotetrahydro-2H-pyran-4-ylamino)-9H-purin-9-yl)-1-methylcyclohexanecarboxamide] |
| < 250 | C[C@]1(C(N)=O)CC[C@@H](n2c(Nc3c(Cl)cc(C#N)cc3Cl)nc3cnc(N[C@H]4CCOC[C@H]4F)nc32)CC1 [Example 761, (1R,4s)-4-(8-(2,6-dichloro-4-cyanophenylamino)-2-((3S,4S)-3-fluorotetrahydro-2H-pyran-4-ylamino)-9H-purin-9-yl)-1-methylcyclohexanecarboxamide] |
| < 250 | N#Cc1cc(Cl)c(Nc2nc3cnc(N[C@@H]4CCOC[C@H]4F)nc3n2[C@H]2CC[C@@H](C(N)=O)CC2)c(Cl)c1 [Example 762, (1S,4s)-4-(8-(2,6-dichloro-4-cyanophenylamino)-2-((3S,4R)-3-fluorotetrahydro-2H-pyran-4-ylamino)-9H-purin-9-yl)cyclohexanecarboxamide] |
| < 250 | C[C@@H]1COCC[C@@H]1Nc1ncc2nc(Nc3c(Cl)cc(C#N)cc3Cl)n([C@H]3CC[C@@](C)(C(N)=O)CC3)c2n1 [Example 763, (1S,4s)-4-(8-(2,6-dichloro-4-cyanophenylamino)-2-((3S,4R)-3-methyltetrahydro-2H-pyran-4-ylamino)-9H-purin-9-yl)-1-methylcyclohexanecarboxamide] |
| 500 to 1000 | CC1(C)COCC[C@H]1Nc1ncc2nc(Nc3c(F)cc(Cl)cc3Cl)n([C@H]3CC[C@@H](C(N)=O)CC3)c2n1 [Example 764, (1S,4s)-4-(8-(2,4-dichloro-6-fluorophenylamino)-2-((R)-3,3-dimethyltetrahydro-2H-pyran-4-ylamino)-9H-purin-9-yl)cyclohexanecarboxamide] |
| < 250 | N#Cc1cc(Cl)c(Nc2nc3cnc(N[C@H]4CCOC[C@H]4F)nc3n2[C@H]2CC[C@@H](C(N)=O)CC2)c(Cl)c1 [Example 765, (1R,4s)-4-(8-(2,6-dichloro-4-cyanophenylamino)-2-((3S,4S)-3-fluorotetrahydro-2H-pyran-4-ylamino)-9H-purin-9-yl)cyclohexanecarboxamide] |
| 500 to 1000 | CC1(C)COCC[C@H]1Nc1ncc2nc(Nc3c(Cl)cc(Cl)cc3Cl)n([C@H]3CC[C@@H](C(N)=O)CC3)c2n1 [Example 766, (1S,4s)-4-(2-((R)-3,3-dimethyltetrahydro-2H-pyran-4-ylamino)-8-(2,4,6-trichlorophenylamino)-9H-purin-9-yl)cyclohexanecarboxamide] |
| > 1000 | CC(C)OC(=O)N1CCC[C@@H](Nc2ncc3nc(Nc4c(F)cc(F)cc4Cl)n([C@H]4CC[C@@H](C(N)=O)CC4)c3n2)C1 [Example 767, (R)-isopropyl 3-(9-((1s,4S)-4-carbamoylcyclohexyl)-8-(2-chloro-4,6-difluorophenylamino)-9H-purin-2-ylamino)piperidine-1-carboxylate] |
| 500 to 1000 | CC(C)OC(=O)N1CCC[C@@H](Nc2ncc3nc(Nc4c(Cl)cc(Cl)cc4Cl)n([C@H]4CC[C@@H](C(N)=O)CC4)c3n2)C1 [Example 768, (R)-isopropyl 3-(9-((1s,4S)-4-carbamoylcyclohexyl)-8-(2,4,6-trichlorophenylamino)-9H-purin-2-ylamino)piperidine-1-carboxylate] |
| 500 to 1000 | CC(C)OC(=O)N1CCC[C@@H](Nc2ncc3nc(Nc4c(Cl)cc(C#N)cc4Cl)n([C@H]4CC[C@@H](C(N)=O)CC4)c3n2)C1 [Example 769, (R)-isopropyl 3-(9-((1s,4S)-4-carbamoylcyclohexyl)-8-(2,6-dichloro-4-cyanophenylamino)-9H-purin-2-ylamino)piperidine-1-carboxylate] |
| > 1000 | CC(C)OC(=O)N1CCC[C@@H](Nc2ncc3nc(Nc4c(Cl)cc(C(F)(F)F)cc4Cl)n([C@H]4CC[C@@H](C(N)=O)CC4)c3n2)C1 [Example 770, (R)-isopropyl 3-(9-((1s,4S)-4-carbamoylcyclohexyl)-8-(2,6-dichloro-4-(trifluoromethyl)phenylamino)-9H-purin-2-ylamino)piperidine-1-carboxylate] |
| > 1000 | CC(C)OC(=O)N1CCC[C@@H](Nc2ncc3nc(Nc4c(F)cc(C#N)cc4F)n([C@H]4CC[C@@H](C(N)=O)CC4)c3n2)C1 [Example 771, (R)-isopropyl 3-(9-((1s,4S)-4-carbamoylcyclohexyl)-8-(4-cyano-2,6-difluorophenylamino)-9H-purin-2-ylamino)piperidine-1-carboxylate] |
| > 1000 | CC(C)OC(=O)N1CCC[C@@H](Nc2ncc3nc(Nc4c(F)cc(F)cc4F)n([C@H]4CC[C@@H](C(N)=O)CC4)c3n2)C1 [Example 772, (R)-isopropyl 3-(9-((1s,4S)-4-carbamoylcyclohexyl)-8-(2,4,6-trifluorophenylamino)-9H-purin-2-ylamino)piperidine-1-carboxylate] |
| 500 to 1000 | CC(C)OC(=O)N1CCC[C@@H](Nc2ncc3nc(Nc4c(F)cc(Cl)cc4F)n([C@H]4CC[C@@H](C(N)=O)CC4)c3n2)C1 [Example 773, (R)-isopropyl 3-(9-((1s,4S)-4-carbamoylcyclohexyl)-8-(4-chloro-2,6-difluorophenylamino)-9H-purin-2-ylamino)piperidine-1-carboxylate] |
| 250 to 500 | CC(C)OC(=O)N1CCC[C@@H](Nc2ncc3nc(Nc4c(F)cc(Cl)cc4Cl)n([C@H]4CC[C@@H](C(N)=O)CC4)c3n2)C1 [Example 774, (R)-isopropyl 3-(9-((1s,4S)-4-carbamoylcyclohexyl)-8-(2,4-dichloro-6-fluorophenylamino)-9H-purin-2-ylamino)piperidine-1-carboxylate] |
| > 1000 | CC(C)OC(=O)N1CCC[C@@H](Nc2ncc3nc(Nc4c(Cl)cc(F)cc4Cl)n([C@H]4CC[C@@H](C(N)=O)CC4)c3n2)C1 [Example 775, (R)-isopropyl 3-(9-((1s,4S)-4-carbamoylcyclohexyl)-8-(2,6-dichloro-4-fluorophenylamino)-9H-purin-2-ylamino)piperidine-1-carboxylate] |

From patent US11590139B2, “Substituted aminopurine compounds, compositions thereof, and methods of treatment therewith” (Signal Pharmaceuticals, LLC, priority 2014, dated 2023)
